Data taken from article PMC10140954, “Thiolactones and Δ^8,9-Pregnene Steroids from the Marine-Derived Fungus Meira sp. 1210CH-42 and Their α-Glucosidase Inhibitory Activity” (Marine Drugs, 2023).

Molecular target: α-glucosidase
Assay: α-glucosidase inhibition assay (pNPG substrate, absorbance at 405 nm)
Format: biochemical
Details: for IC50: 0.1 M PBS pH 7.4, 37 °C, α-glucosidase 0.2 U/mL, 5 mM pNPG, triplicate, read-out: α-Glucosidase inhibitory activity, IC50 (50% inhibitory concentration)
Method: All the assays were carried out under 0.1 M PBS buffer (pH 7.4, Sigma). The samples (10 mM) were dissolved with DMSO (Sigma) and diluted into gradient concentrations with PBS buffer. The pre-reaction mixture consisted of the 130 μL sample with 30 μL α-glucosidase solution (0.2 U/mL, Sigma) and shaken well, then added to a 96-well plate and placed at 37 °C for 10 min in an incubator. Subsequently, 40 μL of 5 mM p-nitrophenyl-α-D-glucopyranoside (pNPG, TCI) was added and further incubated at 37 °C for 20 min. Finally, the α-glucosidase inhibitory activity was determined by measuring the release of […] at 405 nm of the microplate reader. The negative control was prepared by adding PBS buffer instead of the sample in the same way as the test. The blank was prepared by adding PBS buffer instead of pNPG using the same method.

| Compound | IC50 | α-glucosidase inhibitory activity in words (at a concentration of 400 μM) |
| --- | --- | --- |
| CC(=O)N[C@@H]1C(=O)SC[C@@H]1C [Compound 1, 2S-acetamide-3R-methyl-thiolactone] | > 400 µM | weak inhibitory activity |
| CC(=O)N[C@H]1C(=O)SC[C@@H]1C [Compound 2, 2R-acetamide-3R-methyl-thiolactone] | 148 µM |  |
| CC(=O)[C@H]1CC[C@H]2C3=C(CC[C@]12C)[C@@]1(C)CC[C@H](O)C[C@@H]1CC3 [Compound 3, Δ^8,9-3β-hydroxy-5α-17-acetyl steroid] | 280 µM |  |
| CC(=O)C1CCC2C3=C(CCC12C)C1(C)CCC(O)CC1CC3 (stereo not drawn) [Compound 4, Δ^8,9-3α-hydroxy-5α-17-acetyl steroid] | 86 µM |  |
